Biological target: myeloperoxidase (MPO) (Homo sapiens, UniProt P05164)
Assay: flash photolysis/recombination kinetics
Type: binding

myeloperoxidase (MPO), sequence (P05164 165-273): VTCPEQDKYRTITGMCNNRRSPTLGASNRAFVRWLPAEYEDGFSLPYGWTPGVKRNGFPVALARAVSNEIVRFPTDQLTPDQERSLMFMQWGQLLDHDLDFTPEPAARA
myeloperoxidase (MPO), sequence (P05164 279-745): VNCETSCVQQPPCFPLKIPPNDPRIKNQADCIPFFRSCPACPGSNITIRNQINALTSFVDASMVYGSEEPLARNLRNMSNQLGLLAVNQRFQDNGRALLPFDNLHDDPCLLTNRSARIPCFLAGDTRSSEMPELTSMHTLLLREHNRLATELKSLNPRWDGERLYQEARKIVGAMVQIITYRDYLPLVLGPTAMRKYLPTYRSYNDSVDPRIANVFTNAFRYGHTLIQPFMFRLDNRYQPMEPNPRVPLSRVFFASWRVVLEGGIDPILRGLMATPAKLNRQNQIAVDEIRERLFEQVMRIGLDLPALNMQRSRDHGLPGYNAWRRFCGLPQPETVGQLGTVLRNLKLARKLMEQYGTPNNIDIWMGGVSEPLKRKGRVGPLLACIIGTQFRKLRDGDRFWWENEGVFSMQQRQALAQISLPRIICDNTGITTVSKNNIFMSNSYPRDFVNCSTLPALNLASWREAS

## [C-]#[O+] [CO]
  Kd: 1600 µM

From PMC4529485 (Biochemistry, 2010)
